Measurements taken from ChEMBL document CHEMBL1201862, “PubChem BioAssay data set” (2004).
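Exposure lasted 48 hours, with cells grown in 96-well plates and compounds tested at five concentrations. Here, GI50 denotes the concentration required for 50% inhibition of growth.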 Calls of active or inactive are those of the source. No stated cut-off is given here; in the data, active = GI50 up to about 1.1 µM and inactive = higher.

What was measured:
Assay in all cases: NCI anticancer screen, dose series, 48 h
SK-MEL-28 = tested on: SK-MEL-28
CCRF-CEM = tested on: CCRF-CEM
SNB-78 = tested on: SNB-78
EKVX = tested on: EKVX
HL-60 = tested on: HL-60
HOP-92 = tested on: HOP-92
UO-31 = tested on: UO-31
UACC-62 = tested on: UACC-62
NCI/ADR-RES = tested on: NCI/ADR-RES
NCI-H23 = tested on: NCI-H23
RPMI-8226 = tested on: RPMI-8226
IGROV-1 = tested on: IGROV-1
NCI-H226 = tested on: NCI-H226
SK-MEL-2 = tested on: SK-MEL-2
HCC 2998 = tested on: HCC 2998
DMS-273 = tested on: DMS-273
A498 = tested on: A498
KM12 = tested on: KM12
Malme-3M = tested on: Malme-3M
SNB-19 = tested on: SNB-19
OVCAR-5 = tested on: OVCAR-5
K562 = tested on: K562
HT-29 = tested on: HT-29
HCT-116 = tested on: HCT-116
SK-OV-3 = tested on: SK-OV-3
HOP-18 = tested on: HOP-18
RXF 393 = tested on: RXF 393
A549 = tested on: A549
SNB-75 = tested on: SNB-75
DLD-1 = tested on: DLD-1
KM-20L2 = tested on: KM-20L2
LOX IMVI = tested on: LOX IMVI
SN12C = tested on: SN12C
SF-268 = tested on: SF-268
XF498 = tested on: XF498
M19-MEL = tested on: M19-MEL
SW-620 = tested on: SW-620
U-251 = tested on: U-251
HOP-62 = tested on: HOP-62
NCI-H522 = tested on: NCI-H522
OVCAR-8 = tested on: OVCAR-8
DMS-114 = tested on: DMS-114
CAKI-1 = tested on: CAKI-1
SF-539 = tested on: SF-539
HCT-15 = tested on: HCT-15
MOLT-4 = tested on: MOLT-4
COLO 205 = tested on: COLO 205
TK-10 = tested on: TK-10
786-0 = tested on: 786-0
LXFL 529 = tested on: LXFL 529
ACHN = tested on: ACHN
SF-295 = tested on: SF-295
SK-MEL-5 = tested on: SK-MEL-5
OVCAR-4 = tested on: OVCAR-4
UACC-257 = tested on: UACC-257
M14 = tested on: M14
OVCAR-3 = tested on: OVCAR-3
NCI-H460 = tested on: NCI-H460

In the case of `C=C1C(O)C2(O)OCC34C(CC5C(C)=CC(=O)C(O)C5(C)C23)OC(=O)C(OC(=O)C/C=C/CCCCCCCC)C14` (centres undefined), the GI50 (SK-MEL-28) is reported as 20 nM (active), the GI50 (CCRF-CEM) is reported as 20 nM (active) and the GI50 (SNB-78) is reported as 21.9 nM (active). For the same molecule, the GI50 (EKVX) was 20 nM (active), the GI50 (HL-60) was 20 nM (active) and the GI50 (HOP-92) was 20 nM (active). For the same molecule, the GI50 (UO-31) was 45.2 nM (active), the GI50 (UACC-62) was 21.4 nM (active) and the GI50 (NCI/ADR-RES) was 162 nM (active). The GI50 (NCI-H23) was 20 nM (active), the GI50 (RPMI-8226) was 20 nM (active) and the GI50 (IGROV-1) was 20 nM (active). For the same molecule, the GI50 (NCI-H226) was 20 nM (active), the GI50 (SK-MEL-2) was 24.1 nM (active) and the GI50 (HCC 2998) was 20 nM (active). For the same molecule, the GI50 (DMS-273) was 20 nM (active), the GI50 (A498) was 25.4 nM (active) and the GI50 (KM12) was 29.4 nM (active). The GI50 (Malme-3M) was 20 nM (active), the GI50 (SNB-19) was 21.2 nM (active) and the GI50 (OVCAR-5) was 112 nM (active). For the same molecule, the GI50 (K562) was 20 nM (active), the GI50 (HT-29) was 22.6 nM (active) and the GI50 (HCT-116) was 20 nM (active). The GI50 (SK-OV-3) was 56 nM (active), the GI50 (HOP-18) was 0.0776 µM (active) and the GI50 (RXF 393) was 22.3 nM (active). The GI50 (A549) was 24.9 nM (active), the GI50 (SNB-75) was 22.8 nM (active) and the GI50 (DLD-1) was 20 nM (active). The GI50 (KM-20L2) was 20.8 nM (active), the GI50 (LOX IMVI) was 23.7 nM (active) and the GI50 (SN12C) was 27.5 nM (active). For the same molecule, the GI50 (SF-268) was 20.9 nM (active), the GI50 (XF498) was 22.1 nM (active) and the GI50 (M19-MEL) was 20 nM (active). The GI50 (SW-620) was 21.7 nM (active), the GI50 (U-251) was 20 nM (active) and the GI50 (HOP-62) was 23.3 nM (active). The GI50 (NCI-H522) was 20 nM (active), the GI50 (OVCAR-8) was 20 nM (active) and the GI50 (DMS-114) was 20 nM (active). The GI50 (CAKI-1) was 44.9 nM (active), the GI50 (SF-539) was 20.8 nM (active) and the GI50 (HCT-15) was 24.1 nM. For the same molecule, the GI50 (MOLT-4) was 20 nM (active) and the GI50 (COLO 205) was 24.1 nM (active).
In the case of `COc1cc([C@@H]2c3cc4c(cc3[C@@H](NCc3ccc(C#N)cc3)C3COC(=O)[C@@H]32)OCO4)cc(OC)c1O` (some centres undefined), the GI50 (SK-MEL-28) is reported as 2330 nM (inactive), the GI50 (CCRF-CEM) is reported as 233 nM (active) and the GI50 (SNB-78) is reported as 4740 nM (inactive). The GI50 (TK-10) was 1.84 µM (inactive), the GI50 (EKVX) was 1980 nM (inactive) and the GI50 (786-0) was 632 nM (active). For the same molecule, the GI50 (HL-60) was 116 nM (active), the GI50 (HOP-92) was 1880 nM (inactive) and the GI50 (UO-31) was 1610 nM (inactive). The GI50 (UACC-62) was 550 nM (active), the GI50 (NCI-H23) was 317 nM (active) and the GI50 (RPMI-8226) was 993 nM (active). For the same molecule, the GI50 (IGROV-1) was 1150 nM (inactive), the GI50 (NCI-H226) was 283 nM (active) and the GI50 (LXFL 529) was 4.5 µM (inactive). The GI50 (SK-MEL-2) was 3270 nM (inactive), the GI50 (HCC 2998) was 1570 nM (inactive) and the GI50 (DMS-273) was 326 nM (active). The GI50 (A498) was 1070 nM (active), the GI50 (KM12) was 1400 nM (inactive) and the GI50 (Malme-3M) was 1010 nM (active). The GI50 (ACHN) was 272 nM (active), the GI50 (SNB-19) was 621 nM (active) and the GI50 (OVCAR-5) was 2020 nM (inactive). The GI50 (K562) was 1540 nM (inactive), the GI50 (SF-295) was 533 nM (active) and the GI50 (HT-29) was 1190 nM (inactive). For the same molecule, the GI50 (HCT-116) was 1190 nM (inactive), the GI50 (SK-OV-3) was 989 nM (active) and the GI50 (HOP-18) was 95.3 µM (inactive). The GI50 (RXF 393) was 2960 nM (inactive), the GI50 (A549) was 92.3 nM (active) and the GI50 (SNB-75) was 628 nM (active). The GI50 (DLD-1) was 1330 nM (inactive), the GI50 (SK-MEL-5) was 1.5 µM (inactive) and the GI50 (KM-20L2) was 1080 nM (active). For the same molecule, the GI50 (LOX IMVI) was 778 nM (active), the GI50 (SN12C) was 414 nM (active) and the GI50 (SF-268) was 1250 nM (inactive). The GI50 (XF498) was 278 nM (active), the GI50 (M19-MEL) was 1820 nM (inactive) and the GI50 (OVCAR-4) was 20.8 µM (inactive). For the same molecule, the GI50 (UACC-257) was 4.76 µM (inactive), the GI50 (SW-620) was 766 nM (active) and the GI50 (U-251) was 123 nM (active). The GI50 (HOP-62) was 310 nM (active), the GI50 (NCI-H522) was 1090 nM (active) and the GI50 (OVCAR-8) was 1200 nM (inactive). For the same molecule, the GI50 (M14) was 1.1 µM (active), the GI50 (DMS-114) was 1200 nM (inactive) and the GI50 (OVCAR-3) was 2.16 µM (inactive). The GI50 (CAKI-1) was 1260 nM (inactive), the GI50 (SF-539) was 877 nM (active) and the GI50 (NCI-H460) was 34.4 nM (active). For the same molecule, the GI50 (HCT-15) was 1160 nM, the GI50 (MOLT-4) was 51.2 nM (active) and the GI50 (COLO 205) was 948 nM (active).
